Data published in US6827926B2, “Metallotetrapyrrolic photosensitizing agents for use in photodynamic therapy” (Miravant Pharmaceuticals, Inc., priority 2001, dated 2004).

Legend:
[1] = system: normal uninjured rat carotid arteries (medial and adventitial cell populations); experiment: In vivo rat carotid artery acellularity after PDT; design: species or system Sprague Dawley rats; conditions: Table 3; drug dose 1 μMol; 50 J/cm^2; 3 days post treatment
How it was run: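 Metallated photosensitizers light-activated in normal uninjured rat left common carotid via balloon catheter introduced through femoral arteriotomy under isoflurane; excitation 575 nm (Ga, Zn, Al, Sn) or 532 nm (Pt). Arteries harvested 3 days post-treatment, H&E-stained; medial and adventitial cell density assessed by light microscopy.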

[2] = system: skin of Sprague Dawley rats; experiment: Topical in-vivo skin response, Sprague Dawley rats (single topical dermal application)
[3] = system: normal skin of CD Hairless male rats; assay type: in vivo, rat; conditions: Table 3; time of last skin spot observed post injection; 1 μmol; 532 nm laser
How it was run: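 Liposomal egg yolk phospholipid photosensitizer given as single i.v. tail-vein bolus at 1, 1.5 and 2 μmol/kg; skin spots irradiated with 532 nm laser (150 mW/cm^2, 150J, 1 cm) at 1, 6, 24, 48, 96 hrs post injection. Value is time of last observed skin response spot.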

[4] = system: V79 (Chinese Hamster Lung Fibroblasts) cells; experiment: In vitro cytotoxicity assay (light EC50, Alamar blue); assay type: cell-based; conditions: Table 3 porphyrins, 24 h drug incubation, 532 nm, 1.25 J/cm^2, read-out: In Vitro EC50 Light
How it was run: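 V79 cells in phenol-free 5% FBS/DMEM exposed 24 h to photosensitizer at final 0.01–5.0 μM, six replicates, then washed and light-treated, with a dark plate as control. Survival by Alamar blue after 24 h dark incubation, read at 570/600 nm.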

[5] = Systemic toxicity in animals near the therapeutic dose; conditions: 3× the therapeutic dose

SMILES	Max % rat Artery Accelularity [1]	delay of hair regrowth ([2]; topical 0.14 mg/cm^2)	skin response ([2]; topical 0.14 mg/cm^2)	clearing formation of the skin first seen, time post light treatment ([2]; topical 0.28 mg/cm^2)	delay of hair regrowth in the treatment site post light treatment ([2]; topical 0.28 mg/cm^2)	persistence of clearing formation of the skin ([2]; topical 0.28 mg/cm^2)	clearing formation, duration ([2]; topical 0.6 mg/cm^2)	skin responses (small, slight eschar), duration post light treatment ([2]; topical 0.6 mg/cm^2)	time hair did not regrow in the treatment site post light treatment ([2]; topical 0.6 mg/cm^2)	variable clearing persisting post light treatment ([2]; topical 0.6 mg/cm^2)	Normal skin Response (1 μmol) [3]	EC50 [4]	toxicity in animals [5]
CCCOC(=O)CCC1=C(C)c2cc3[n-]c(cc4nc(cc5[n-]c(cc1n2)c(CCC(=O)OCCC)c5C)C(CC)=C4C)c(CC)c3C.[Cl-].[Ga+3] [Example 3, Gallium Chloride Mesoporphyrin Dipropyl Ester]	85%	approximately 21 days	no skin response	7 days	approximately 38 days	at least 28 days	at least 30 days	approximately 10 days	approximately 38 days	up to 3 months	6 h	60 nM	
CCC1=C(C)c2cc3[n-]c(cc4nc(cc5[n-]c(cc1n2)c(C)c5CC)C(C)=C4CCCC(=O)OC)c(CCCC(=O)OC)c3C.[Cl-].[In+3] [Example 46, Indium Chloride 8,13-diethyl-3,7,12,17-tetramethylporphyrin-2,18-di(butanoic acid methyl ester)]	90%										48 h	40 nM	death occurs in the animals at 3× the therapeutic dose
